# Measurements taken from patent US20260365677A1, “NEW CONTRAST AGENTS FOR USE IN DIAGNOSTIC IMAGING” (Bayer Aktiengesellschaft, priority 2022, published 2026).
# Experiments:
# [1] = Partition coefficient (log P butanol/buffer); type: physicochemical; details: 50 mM Tris-HCl, pH 7.4, 10 μM, room temperature
# Method: The partition coefficient P (log P=log(Cbutanol/Cbuffer)) was determined in buffered aqueous solution (10 μM of compound in 0.5 mL 50 mM Tris-HCl saturated with Butanol, pH 7.4) and 1-butanol 1+1 and the mixture was shaken for 2 h at room temperature (n=3). The Gd-concentrations in each phase. CObutano, and Cbuffer were measured by ICP-MS (The Chemistry of Contrast Agents in Medical Magnetic Resonance Imaging” 2nd Ed. Merbach A S, Helm L, Toth E, eds. Hoboken, NJ: Wiley 2013).
# OATP1B1 = molecular target: T1, OATP1B1 (Homo sapiens, UniProt Q9Y6L6); assay: Uptake into stable transfected OATP1B1 HEK 293 cells; type: cell-based; details: 100 μM, 40 min, relative to RC1 (Gd-EOB-DTPA)
# T1 construct: expressed in transfected cells
# T1 sequence (Q9Y6L6 1-691): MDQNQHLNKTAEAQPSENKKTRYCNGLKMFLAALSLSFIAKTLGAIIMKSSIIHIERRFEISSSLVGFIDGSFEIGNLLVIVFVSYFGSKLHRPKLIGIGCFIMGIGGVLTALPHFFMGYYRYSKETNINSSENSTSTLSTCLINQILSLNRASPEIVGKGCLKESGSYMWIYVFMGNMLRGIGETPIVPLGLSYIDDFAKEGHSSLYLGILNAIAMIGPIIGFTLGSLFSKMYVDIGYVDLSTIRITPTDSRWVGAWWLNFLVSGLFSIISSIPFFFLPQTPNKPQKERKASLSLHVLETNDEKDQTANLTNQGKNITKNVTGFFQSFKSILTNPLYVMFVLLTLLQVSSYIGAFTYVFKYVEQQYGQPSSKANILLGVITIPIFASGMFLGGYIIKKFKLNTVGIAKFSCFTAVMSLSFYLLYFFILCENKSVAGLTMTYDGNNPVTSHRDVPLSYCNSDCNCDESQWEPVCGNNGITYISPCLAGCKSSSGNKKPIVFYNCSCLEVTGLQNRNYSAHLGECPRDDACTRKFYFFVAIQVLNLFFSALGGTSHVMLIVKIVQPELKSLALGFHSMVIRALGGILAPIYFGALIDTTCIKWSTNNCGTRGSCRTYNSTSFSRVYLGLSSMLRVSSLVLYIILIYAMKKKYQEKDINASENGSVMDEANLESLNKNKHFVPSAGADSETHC
# Method: Human stable transfected OATP1 B1 human embryonic kidney 293 cells (OATP1 B1 HEK 293, SLCO1B1, Entrez Gene ID: 10599) were used (Leonhardt M et al. Drug Metab Dispos. 2010 July; 38(7):1024-8). The following culture medium was used: 500 mL DMEM (Dulbecco's Modified Eagle Medium—high Glucose, D6429), 50 mL FCS (fetal bovine serum, Fa. Sigma, F7524), 5.8 mL G418 (Geneticin, Fa. Gibco 10131-027) and 5 mL Pen-Strep. (Penicillin-Streptomycin, Fa. Gibco, Ref 15140-122). Cryopreserved cells were shortly thawed in water bath and diluted in 10 mL warm culture medium (37 °C). After medium change the cells were grown for 3d in a 25 cm^2 cell culture flask. After 3 to 5d the cells were transferred into 75 cm^2 flasks. For the splitting the cells were incubated with 1.5 mL trypsin (Trypsin-EDTA (1×) 0.05%, Ref 25300-054 100 ml, Fa. Gibco) for 3-5 min in the incubator (37 °C, 5% CO2 and 95% oxygen). After centrifugation and washing with medium the cells were counted (50 μL cell suspension and 50 μL trypan blue (Trypan Blue Solution, 93595-50 ml, Fa. Fluka). Cells were cultured (1×10^5 cells/well) in poly-D-lysine coated 24-well plates (Fa. Corning, Ref: 354414) in 1.5 mL medium per well. After 48 h in the incubator the medium was changed and 1.5 mL/well sodium butyrate containing medium were added (40 mL culture medium plus 400 μL Na-Butyrate, Fa. Sigma Aldrich B5887-5G, 250 mg in 2.27 mL MilliQ water). After 24 h in the incubator the medium was vacuumed off and 1.5 mL transport buffer was added and incubated for 10 min. The transport buffer contains the following ingredients: 500 mL HBSS (Hank's balanced salt solution, Hyclone, SH30268.01), 5 mL HEPES buffer (4-(2-hydroxyethyl)-1-piperazine-ethanesulfonic acid, Gibco 15630-056) and 3.9 mL glucose (Sigma, G8270-100, 90 g/200 mL MilliQ water). All test items were prepared in transport buffer at a final concentration of 100 μM from stock solutions (180 to 500 mM concentration). The OATP1B1 HEK 293 cells were incubated with test solutions (test item in transport buffer 500 μL) for 40 min on a thermoshaker without shaking (PHMP, Fa. Grant Bio). Triplicates were performed for each test item. After incubation the cells were washed with 2 mL of cold PBS (+) buffer (Dulbeccos PBS+, Fa. Gibco). […] As a reference standard Gd-EOB-DTPA (gadoxetate) is used in the same well plate. The OATP1B1 HEK 293 uptake of the test compound is calculated relative to gadoxetate (resulting in the unit % of RC1).
# [2] = tested on: freshly isolated rat hepatocytes; assay: Uptake into freshly isolated rat hepatocytes; type: cell-based; details: 100 μmol Gd/L, 10 min, 37 °C, relative to RC1 (Gd-EOB-DTPA)
# Method: Triplicates were performed for each test item.
SMILES,Log P [1],Uptake into OATP1B1-HEK 293 cells (OATP1B1),Uptake rat hepatocytes [2]
"CCOc1ccc(CC2CN(CC(=O)[O-])CCN(CC(=O)[O-])CCN(CC(=O)O)CCN2CC(=O)[O-])cc1.[Gd+3] (single isomer, unassigned; diastereomer 1) [Example 8, Gadolinium-2,2′,2″-[10-(carboxymethyl)-2-(4-ethoxybenzyl)-1,4,7,10-tetraazacyclododecane-1,4,7-triyl]triacetate (racemic diastereomer 1)]",−1.33,208 % of RC1,143 % of RC1
"CCOc1ccc(CC2CN(CC(=O)[O-])CCN(CC(=O)[O-])CCN(CC(=O)O)CCN2CC(=O)[O-])cc1.[Gd+3] (single isomer, unassigned; diastereomer 2) [Example 9, Gadolinium-2,2′,2″-[10-(carboxymethyl)-2-(4-ethoxybenzyl)-1,4,7,10-tetraazacyclododecane-1,4,7-triyl]triacetate (racemic diastereomer 2)]",−1.36,60 % of RC1,42 % of RC1
"CCOc1ccc(C[C@H]2CN(CC(=O)[O-])CCN(CC(=O)[O-])CCN(CC(=O)O)CCN2CC(=O)[O-])cc1.[Gd+3] (single isomer, unassigned; stereoisomer 1) [Example 10]",−1.34,212 % of RC1,104 % of RC1
"CCCCOc1ccc(C[C@H]2CN(CC(=O)[O-])CCN(CC(=O)[O-])CCN(CC(=O)O)CCN2CC(=O)[O-])cc1.[Gd+3] (single isomer, unassigned; stereoisomer 1) [Example 12]",−0.45,119 % of RC1,110 % of RC1
"CCOc1ccc(C[C@H]2CN(CC(=O)[O-])CCN(CC(=O)[O-])CCN(CC(=O)O)CCN2CC(=O)[O-])cc1.[Gd+3] (single isomer, unassigned; stereoisomer 2) [Example 11]",−1.37,96 % of RC1,49 % of RC1
"CCCCOc1ccc(C[C@H]2CN(CC(=O)[O-])CCN(CC(=O)[O-])CCN(CC(=O)O)CCN2CC(=O)[O-])cc1.[Gd+3] (single isomer, unassigned; stereoisomer 2) [Example 13]",–,847 % of RC1,137 % of RC1
"COCCOCCOCCOc1ccc(C[C@H]2CN(CC(=O)[O-])CCN(CC(=O)[O-])CCN(CC(=O)O)CCN2CC(=O)[O-])cc1.[Gd+3] [Example 1, Gadolinium-2,2′,2″-[(2S)-10-(carboxymethyl)-2-(4-{2-[2-(2-methoxyethoxy)-ethoxy]ethoxy}benzyl)-1,4,7,10-tetraazacyclododecane-1,4,7-triyl]triacetate]",−2.12,143 % of RC1,47 % of RC1
"CCOCCOCCOc1ccc(C[C@H]2CN(CC(=O)[O-])CCN(CC(=O)[O-])CCN(CC(=O)O)CCN2CC(=O)[O-])cc1.[Gd+3] [Example 2, Gadolinium-2,2′,2″-[(2S)-10-(carboxymethyl)-2-{4-[2-(2-ethoxyethoxy)ethoxy]benzyl}-1,4,7,10-tetraazacyclododecane-1,4,7-triyl]triacetate]",−1.52,282 % of RC1,65 % of RC1
"COCCOCCOCCOc1ccc(C[C@@H]2CN(CC(=O)[O-])CCN(CC(=O)[O-])CCN(CC(=O)O)CCN2CC(=O)[O-])cc1.[Gd+3] [Example 3, Gadolinium-2,2′,2″-[(2R)-10-(carboxymethyl)-2-(4-{2-[2-(2-methoxyethoxy)ethoxy]ethoxy}benzyl)-1,4,7,10-tetraazacyclododecane-1,4,7-triyl]triacetate]",−2.05,120 % of RC1,49 % of RC1
"CCOCCOc1ccc(C[C@H]2CN(CC(=O)[O-])CCN(CC(=O)[O-])CCN(CC(=O)O)CCN2CC(=O)[O-])cc1.[Gd+3] [Example 4, Gadolinium-2,2′,2″-{(2S)-10-(carboxymethyl)-2-[4-(2-ethoxyethoxy)benzyl]-1,4,7,10-tetraazacyclododecane-1,4,7-triyl}triacetate]",−1.57,65 % of RC1,67 % of RC1
"CCOCCOCCOCCOc1ccc(C[C@H]2CN(CC(=O)[O-])CCN(CC(=O)[O-])CCN(CC(=O)O)CCN2CC(=O)[O-])cc1.[Gd+3] [Example 5, Gadolinium-2,2′,2″-[(2S)-10-(carboxymethyl)-2-(4-{2-[2-(2-ethoxyethoxy)ethoxy]ethoxy}benzyl)-1,4,7,10-tetraazacyclododecane-1,4,7-triyl]triacetate]",−1.74,78 % of RC1,57 % of RC1
"CCOCCOCCOc1ccc(C[C@H]2CN(CC(=O)[O-])CCN(CC(=O)[O-])CCN(CC(=O)O)CCN2CC(=O)[O-])nc1.[Gd+3] [Example 6, Gadolinium 2,2′,2″-[(2S)-10-(carboxymethyl)-2-({5-[2-(2-ethoxyethoxy)ethoxy]pyridin-2-yl}methyl)-1,4,7,10-tetraazacyclododecane-1,4,7-triyl]triacetate]",−1.96,174 % of RC1,47 % of RC1
"CCOc1ccc(CC2CN(CC(=O)[O-])CCN(CC(=O)[O-])CCN(CC(=O)O)CCN2CC(=O)[O-])cc1.[Gd+3] (centres unmarked) [Example 7, Gadolinium-2,2′,2″-[10-(carboxymethyl)-2-(4-ethoxybenzyl)-1,4,7,10-tetraazacyclododecane-1,4,7-triyl]triacetate]",−1.32,103 % of RC1,73 % of RC1
